Each structure is given as a SMILES string.

This assay deals with T1, GCase (Homo sapiens, UniProt P04062).
T1 construct: endogenous in cells; host or cells: HeLa cells
T1 sequence (P04062 40-536): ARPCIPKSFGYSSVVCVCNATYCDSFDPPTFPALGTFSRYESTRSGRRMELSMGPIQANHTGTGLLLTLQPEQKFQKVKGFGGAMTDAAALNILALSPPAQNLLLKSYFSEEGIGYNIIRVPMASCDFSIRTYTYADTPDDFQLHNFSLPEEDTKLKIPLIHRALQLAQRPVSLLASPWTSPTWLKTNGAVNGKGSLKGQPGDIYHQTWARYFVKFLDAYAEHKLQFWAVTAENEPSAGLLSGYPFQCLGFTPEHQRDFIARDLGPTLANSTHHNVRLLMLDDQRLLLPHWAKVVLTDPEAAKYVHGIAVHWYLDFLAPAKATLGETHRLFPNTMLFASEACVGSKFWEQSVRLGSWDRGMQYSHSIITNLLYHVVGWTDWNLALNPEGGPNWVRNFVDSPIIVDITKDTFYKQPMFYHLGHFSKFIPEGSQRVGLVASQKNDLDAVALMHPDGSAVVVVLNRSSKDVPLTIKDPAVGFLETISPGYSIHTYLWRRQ
The assay is described as follows: activation of GCase in a live cell PFB assay in HELA cells. It is filed as cell-based. The following applies: activation of GCase, EC50 ranges. As for the experimental part:
Exemplary compounds were evaluated for activation of GCase in a live cell PFB assay in HELA cells (essentially as described in Ysselstein et al., “LRRK2 kinase activity regulates lysosomal glucocerebrosidase in neurons derived from Parkinson's disease patients” Nature Communications (2019) 10:5570). […] EC50 ranges: A: <10 μM; B: >10-50 μM; C: >50-100 μM; D: >100 μM.
As to `FC(F)(F)c1cc(N2CCCC3(C2)CN(c2cnc4cn(Cc5ccccc5)nc4n2)C3)ccn1` [Compound 103, 2-{2-benzyl-2H-pyrazolo[3,4-b]pyrazin-6-yl}-6-[2-(trifluoromethyl)pyridin-4-yl]-2,6-diazaspiro[3.5]nonane], the EC50 lay within 10 to 50 µM. The result for `FC(F)(F)c1cc(N2CCCC3(C2)CN(c2cnc4cnn(Cc5ccccc5)c4n2)C3)ccn1` [Compound 104, 2-{1-benzyl-1H-pyrazolo[3,4-b]pyrazin-6-yl}-6-[2-(trifluoromethyl)pyridin-4-yl]-2,6-diazaspiro[3.5]nonane] reads 10 to 50 µM; that for `Cn1c(-c2ccccc2)c(C(=O)N2CCCC3(CC(Oc4cccnc4C(F)(F)F)C3)C2)c2nccnc21` (stereo not shown) [Compound 108, 6-{5-methyl-6-phenyl-5H-pyrrolo[2,3-b]pyrazine-7-carbonyl}-2-{[2-(trifluoromethyl)pyridin-3-yl]oxy}-6-azaspiro[3.5]nonane], 10 to 50 µM. For the molecule `FC(F)Cn1ncc2ncc(NC3CCC4(CC3)CN(c3cccnc3C(F)(F)F)C4)nc21` [Compound 109, N-[1-(2,2-difluoroethyl)-1H-pyrazolo[3,4-b]pyrazin-6-yl]-2-[2-(trifluoromethyl)pyridin-3-yl]-2-azaspiro[3.5]nonan-7-amine], the EC50 lay in the range of 10 to 50 µM. In turn, `O=C1CC2(CCN(c3ccc(C(F)(F)F)nc3)CC2)CN1c1cnc2cnn(CC(F)F)c2n1` [Compound 110, 2-[1-(2,2-difluoroethyl)-1H-pyrazolo[3,4-b]pyrazin-6-yl]-8-[6-(trifluoromethyl)pyridin-3-yl]-2,8-diazaspiro[4.5]decan-3-one] returned an EC50 of 10 to 50 µM. In turn, `O=C1CC2(CCN(c3cncc(C(F)(F)F)c3)CC2)CN1c1cnc2cnn(CC(F)F)c2n1` [Compound 111, 2-[1-(2,2-difluoroethyl)-1H-pyrazolo[3,4-b]pyrazin-6-yl]-8-[5-(trifluoromethyl)pyridin-3-yl]-2,8-diazaspiro[4.5]decan-3-one] gave an EC50 of 10 to 50 µM. `O=C1CC2(CCN(c3ccc(C(F)(F)F)cn3)CC2)CN1c1cnc2cnn(CC(F)F)c2n1` [Compound 112, 2-[1-(2,2-difluoroethyl)-1H-pyrazolo[3,4-b]pyrazin-6-yl]-8-[5-(trifluoromethyl)pyridin-2-yl]-2,8-diazaspiro[4.5]decan-3-one] yielded an EC50 of 10 to 50 µM. `O=C1CC2(CCN(c3ncccc3C(F)(F)F)CC2)CN1c1cnc2cnn(CC(F)F)c2n1` [Compound 113, 2-[1-(2,2-difluoroethyl)-1H-pyrazolo[3,4-b]pyrazin-6-yl]-8-[3-(trifluoromethyl)pyridin-2-yl]-2,8-diazaspiro[4.5]decan-3-one]: the EC50 was above 100 µM. On to `O=C1CCC2(CN(c3cnc4cnn(CC(F)F)c4n3)C2)CN1c1cccc(C(F)(F)F)n1` [Compound 114, 2-[1-(2,2-difluoroethyl)-1H-pyrazolo[3,4-b]pyrazin-6-yl]-6-[6-(trifluoromethyl)pyridin-2-yl]-2,6-diazaspiro[3.5]nonan-7-one], for which the concentration giving a half-maximal response (EC50) lay in the range of 10 to 50 µM. As to `O=C1N(c2cccc(C(F)(F)F)n2)CCCC12CN(c1cnc3cnn(CC(F)F)c3n1)C2` [Compound 115, 2-[1-(2,2-difluoroethyl)-1H-pyrazolo[3,4-b]pyrazin-6-yl]-6-[6-(trifluoromethyl)pyridin-2-yl]-2,6-diazaspiro[3.5]nonan-5-one], the 50% effective concentration (EC50) is 10 to 50 µM.

The molecule `COCCN1CCC2(CCN(c3cnc4cnn(CC(F)F)c4n3)CC2)C1=O` [Compound 116, 8-[1-(2,2-difluoroethyl)-1H-pyrazolo[3,4-b]pyrazin-6-yl]-2-(2-methoxyethyl)-2,8-diazaspiro[4.5]decan-1-one] displayed an EC50 of 10 to 50 µM.

Regarding `FC(F)Cn1ncc2ncc(N3CC4(CCN(c5ccnc(C(F)(F)F)c5)CC4)C3)nc21` [Compound 117, 2-[1-(2,2-difluoroethyl)-1H-pyrazolo[3,4-b]pyrazin-6-yl]-7-[2-(trifluoromethyl)pyridin-4-yl]-2,7-diazaspiro[3.5]nonane], the 50% effective concentration (EC50) was below 10 µM. In the case of `O=C1N(c2cnc3cnn(CC(F)F)c3n2)CCC12CCN(c1ccnc(C(F)(F)F)c1)CC2` [Compound 118, 2-[1-(2,2-difluoroethyl)-1H-pyrazolo[3,4-b]pyrazin-6-yl]-8-[2-(trifluoromethyl)pyridin-4-yl]-2,8-diazaspiro[4.5]decan-1-one], the 50% effective concentration (EC50) was in the range of 10 to 50 µM. Take `O=C1N(c2cnc3cnn(CC(F)F)c3n2)CCC12CCN(c1ccc(C(F)(F)F)nc1)CC2` [Compound 119, 2-[1-(2,2-difluoroethyl)-1H-pyrazolo[3,4-b]pyrazin-6-yl]-8-[6-(trifluoromethyl)pyridin-3-yl]-2,8-diazaspiro[4.5]decan-1-one]: the EC50 is below 10 µM. Regarding `O=C1N(c2cnc3cnn(CC(F)F)c3n2)CCC12CCN(c1ncccc1C(F)(F)F)CC2` [Compound 120, 2-[1-(2,2-difluoroethyl)-1H-pyrazolo[3,4-b]pyrazin-6-yl]-8-[3-(trifluoromethyl)pyridin-2-yl]-2,8-diazaspiro[4.5]decan-1-one], the EC50 was below 10 µM. Turning to `O=C1N(c2cnc3cnn(CC(F)F)c3n2)CCC12CCN(c1ccc(C(F)(F)F)cn1)CC2` [Compound 121, 2-[1-(2,2-difluoroethyl)-1H-pyrazolo[3,4-b]pyrazin-6-yl]-8-[5-(trifluoromethyl)pyridin-2-yl]-2,8-diazaspiro[4.5]decan-1-one], the concentration giving a half-maximal response (EC50) is below 10 µM. `O=C1N(c2cnc3cnn(CC(F)F)c3n2)CCC12CCN(c1cncc(C(F)(F)F)c1)CC2` [Compound 122, 2-[1-(2,2-difluoroethyl)-1H-pyrazolo[3,4-b]pyrazin-6-yl]-8-[5-(trifluoromethyl)pyridin-3-yl]-2,8-diazaspiro[4.5]decan-1-one]: the concentration for a half-maximal effect (EC50) was below 10 µM.

`FC(F)Cn1ncc2ncc(N3CC4(CCN(c5ncccc5C(F)(F)F)CC4)C3)nc21` [Compound 123, 2-[1-(2,2-difluoroethyl)-1H-pyrazolo[3,4-b]pyrazin-6-yl]-7-[3-(trifluoromethyl)pyridin-2-yl]-2,7-diazaspiro[3.5]nonane] returned an EC50 of 10 to 50 µM. For the molecule `FC(F)Cn1ncc2ncc(N3CC4(CCN(c5ccc(C(F)(F)F)cn5)CC4)C3)nc21` [Compound 124, 2-[1-(2,2-difluoroethyl)-1H-pyrazolo[3,4-b]pyrazin-6-yl]-7-[5-(trifluoromethyl)pyridin-2-yl]-2,7-diazaspiro[3.5]nonane], the EC50 is below 10 µM. The result for `FC(F)Cn1ncc2ncc(N3CC4(CCN(c5cccc(C(F)(F)F)n5)CC4)C3)nc21` [Compound 125, 2-[1-(2,2-difluoroethyl)-1H-pyrazolo[3,4-b]pyrazin-6-yl]-7-[6-(trifluoromethyl)pyridin-2-yl]-2,7-diazaspiro[3.5]nonane] reads 10 to 50 µM. The molecule `FC(F)Cn1ncc2ncc(N3CC4(CCN(c5cncc(C(F)(F)F)c5)CC4)C3)nc21` [Compound 126, 2-[1-(2,2-difluoroethyl)-1H-pyrazolo[3,4-b]pyrazin-6-yl]-7-[5-(trifluoromethyl)pyridin-3-yl]-2,7-diazaspiro[3.5]nonane] yielded an EC50 below 10 µM. The molecule `FC(F)Cn1ncc2ncc(N3CC4(CCN(c5ccc(C(F)(F)F)nc5)CC4)C3)nc21` [Compound 127, 2-[1-(2,2-difluoroethyl)-1H-pyrazolo[3,4-b]pyrazin-6-yl]-7-[6-(trifluoromethyl)pyridin-3-yl]-2,7-diazaspiro[3.5]nonane] had an EC50 below 10 µM.

The EC50 is the concentration needed to bring the measured effect to its halfway point. A higher EC50 goes with lower potency in that assay.

Values taken from US20250034170A1, “SMALL MOLECULE MODULATORS OF GLUCOCEREBROSIDASE ACTIVITY AND USES THEREOF” (Vanqua Bio, Inc., priority 2021, published 2025).
